{"source": "paper PMC8909834", "about": "“An Orally Bioavailable and Highly Efficacious Inhibitor of CDK9/FLT3 for the Treatment of Acute Myeloid Leukemia” (Cancers, 2022)", "assay_in_all_cases": "Kinase Hotspot radiolabel assay", "type_in_all_cases": "biochemical", "settings_in_all_cases": "read-out: % Residual Activity", "key": {"CK1a1L": {"molecular_target": "T1, CK1a1L (Homo sapiens, UniProt Q8N752)", "T1 construct": "purchased Reaction Biology Corporation (Kinase HotSpot)", "outline": "(§1)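 Data come from a 369-member kinase selectivity screen run as a Hotspot radiolabel assay. Compound concentration was 1 µM, and Ki was determined wherever inhibition topped 90%.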"}, "EPHA6": {"molecular_target": "T2, EPHA6 (Homo sapiens, UniProt Q9UF33)", "T2 construct": "purchased Reaction Biology Corporation (Kinase HotSpot)", "outline": "as §1"}, "LYN": {"molecular_target": "T3, LYN (Homo sapiens, UniProt P07948)", "T3 construct": "purchased Reaction Biology Corporation (Kinase HotSpot)", "outline": "as §1"}, "ABL2/ARG": {"molecular_target": "T4, ABL2/ARG (Homo sapiens, UniProt P42684)", "T4 construct": "purchased Reaction Biology Corporation (Kinase HotSpot)", "outline": "as §1"}, "OSR1/OXSR1": {"molecular_target": "T5, OSR1/OXSR1 (Homo sapiens, UniProt O95747)", "T5 construct": "purchased Reaction Biology Corporation (Kinase HotSpot)", "outline": "as §1"}, "DRAK1/STK17A": {"molecular_target": "T6, DRAK1/STK17A (Homo sapiens, UniProt Q9UEE5)", "T6 construct": "purchased Reaction Biology Corporation (Kinase HotSpot)", "outline": "as §1"}, "ULK2": {"molecular_target": "T7, ULK2 (Homo sapiens, UniProt Q8IYT8)", "T7 construct": "purchased Reaction Biology Corporation (Kinase HotSpot)", "outline": "as §1"}, "EPHA1": {"molecular_target": "T8, EPHA1 (Homo sapiens, UniProt P21709)", "T8 construct": "purchased Reaction Biology Corporation (Kinase HotSpot)", "outline": "as §1"}, "RIPK3": {"molecular_target": "T9, RIPK3 (Homo sapiens, UniProt Q9Y572)", "T9 construct": "purchased Reaction Biology Corporation (Kinase HotSpot)", "T9 sequence (Q9Y572 whole entry)": "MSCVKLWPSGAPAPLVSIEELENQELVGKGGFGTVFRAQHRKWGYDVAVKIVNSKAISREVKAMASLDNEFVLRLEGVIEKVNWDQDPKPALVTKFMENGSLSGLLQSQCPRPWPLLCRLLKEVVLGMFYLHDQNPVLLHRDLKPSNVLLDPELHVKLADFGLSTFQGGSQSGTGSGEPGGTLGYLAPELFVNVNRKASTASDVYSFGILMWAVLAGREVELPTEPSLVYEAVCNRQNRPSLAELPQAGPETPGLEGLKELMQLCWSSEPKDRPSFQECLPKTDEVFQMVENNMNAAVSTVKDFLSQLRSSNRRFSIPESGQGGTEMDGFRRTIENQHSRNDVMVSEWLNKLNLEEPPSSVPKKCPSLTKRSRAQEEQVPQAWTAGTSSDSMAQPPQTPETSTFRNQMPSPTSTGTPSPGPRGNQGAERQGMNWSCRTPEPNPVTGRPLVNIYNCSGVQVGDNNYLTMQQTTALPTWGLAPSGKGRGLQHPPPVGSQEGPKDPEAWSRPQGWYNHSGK", "outline": "as §1"}, "Haspin": {"molecular_target": "T10, Haspin (Homo sapiens, UniProt Q8TF76)", "T10 construct": "purchased Reaction Biology Corporation (Kinase HotSpot)", "outline": "as §1"}, "PAK1": {"molecular_target": "T11, PAK1 (Homo sapiens, UniProt Q13153)", "T11 construct": "purchased Reaction Biology Corporation (Kinase HotSpot)", "outline": "as §1"}, "KDR/VEGFR2": {"molecular_target": "T12, KDR/VEGFR2 (Homo sapiens, UniProt P35968)", "T12 construct": "purchased Reaction Biology Corporation (Kinase HotSpot)", "outline": "as §1"}, "CAMK1g": {"molecular_target": "T13, CAMK1g (Homo sapiens, UniProt Q96NX5)", "T13 construct": "purchased Reaction Biology Corporation (Kinase HotSpot)", "outline": "as §1"}, "CSK": {"molecular_target": "T14, CSK (Homo sapiens, UniProt P41240)", "T14 construct": "purchased Reaction Biology Corporation (Kinase HotSpot)", "outline": "as §1"}, "MKK6": {"molecular_target": "T15, MKK6 (Homo sapiens, UniProt P52564)", "T15 construct": "purchased Reaction Biology Corporation (Kinase HotSpot)", "T15 sequence (P52564 whole entry)": "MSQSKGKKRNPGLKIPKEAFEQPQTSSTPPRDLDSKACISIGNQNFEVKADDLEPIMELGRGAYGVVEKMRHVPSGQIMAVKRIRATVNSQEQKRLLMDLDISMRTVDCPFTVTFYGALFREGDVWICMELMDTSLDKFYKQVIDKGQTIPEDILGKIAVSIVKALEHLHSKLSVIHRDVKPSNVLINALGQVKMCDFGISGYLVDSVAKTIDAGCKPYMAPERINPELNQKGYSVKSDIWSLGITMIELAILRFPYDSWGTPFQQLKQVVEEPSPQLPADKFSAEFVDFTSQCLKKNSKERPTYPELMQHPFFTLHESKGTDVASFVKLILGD", "outline": "as §1"}, "PLK2": {"molecular_target": "T16, PLK2 (Homo sapiens, UniProt Q9NYY3)", "T16 construct": "purchased Reaction Biology Corporation (Kinase HotSpot)", "outline": "as §1"}, "CAMK2d": {"molecular_target": "T17, CAMK2d (Homo sapiens, UniProt Q13557)", "T17 construct": "purchased Reaction Biology Corporation (Kinase HotSpot)", "outline": "as §1"}, "CDK18/cyclin Y (PCTK3)": {"molecular_target": "T18, CDK18/cyclin Y (PCTK3) (Homo sapiens, UniProt Q07002)", "T18 construct": "purchased Reaction Biology Corporation (Kinase HotSpot)", "T18 sequence (Q07002 whole entry)": "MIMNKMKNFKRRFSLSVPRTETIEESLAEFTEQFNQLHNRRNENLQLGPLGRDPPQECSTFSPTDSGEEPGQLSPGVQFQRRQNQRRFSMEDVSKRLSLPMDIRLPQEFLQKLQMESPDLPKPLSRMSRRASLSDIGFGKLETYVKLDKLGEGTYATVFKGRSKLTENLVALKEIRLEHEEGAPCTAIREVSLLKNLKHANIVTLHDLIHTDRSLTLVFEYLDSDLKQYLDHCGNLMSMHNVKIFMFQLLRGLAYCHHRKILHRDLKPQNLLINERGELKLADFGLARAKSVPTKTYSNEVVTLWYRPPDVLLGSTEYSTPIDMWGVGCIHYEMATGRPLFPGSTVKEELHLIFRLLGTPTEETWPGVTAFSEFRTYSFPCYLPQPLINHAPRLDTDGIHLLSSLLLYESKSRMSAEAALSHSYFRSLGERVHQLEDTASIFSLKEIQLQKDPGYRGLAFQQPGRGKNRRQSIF", "T18 sequence (Q8ND76 whole entry partner)": "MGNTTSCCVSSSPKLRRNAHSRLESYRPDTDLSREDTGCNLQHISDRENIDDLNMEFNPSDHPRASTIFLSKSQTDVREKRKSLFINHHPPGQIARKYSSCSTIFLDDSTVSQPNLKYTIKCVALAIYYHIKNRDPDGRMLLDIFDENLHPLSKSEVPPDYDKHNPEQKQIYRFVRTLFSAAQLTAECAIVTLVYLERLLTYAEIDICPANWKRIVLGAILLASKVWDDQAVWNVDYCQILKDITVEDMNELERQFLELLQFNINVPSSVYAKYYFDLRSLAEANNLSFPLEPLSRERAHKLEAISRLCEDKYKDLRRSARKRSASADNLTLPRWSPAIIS", "outline": "as §1"}, "SGK3/SGKL": {"molecular_target": "T19, SGK3/SGKL (Homo sapiens, UniProt Q96BR1)", "T19 construct": "purchased Reaction Biology Corporation (Kinase HotSpot)", "T19 sequence (Q96BR1 whole entry)": "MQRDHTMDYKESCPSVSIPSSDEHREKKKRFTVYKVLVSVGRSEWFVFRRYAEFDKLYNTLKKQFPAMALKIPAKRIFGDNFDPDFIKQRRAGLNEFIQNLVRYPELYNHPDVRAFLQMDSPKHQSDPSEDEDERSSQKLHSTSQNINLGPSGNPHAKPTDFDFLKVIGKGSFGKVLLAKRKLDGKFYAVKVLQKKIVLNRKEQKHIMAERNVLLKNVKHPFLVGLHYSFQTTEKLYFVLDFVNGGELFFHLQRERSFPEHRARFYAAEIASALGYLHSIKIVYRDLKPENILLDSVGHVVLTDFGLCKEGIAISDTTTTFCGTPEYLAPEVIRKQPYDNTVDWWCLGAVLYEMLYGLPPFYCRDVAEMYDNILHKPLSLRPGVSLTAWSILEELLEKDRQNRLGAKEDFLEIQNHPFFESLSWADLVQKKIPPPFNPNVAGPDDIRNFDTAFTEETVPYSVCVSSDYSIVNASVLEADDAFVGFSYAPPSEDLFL", "outline": "as §1"}, "DLK/MAP3K12": {"molecular_target": "T20, DLK/MAP3K12 (Homo sapiens, UniProt Q12852)", "T20 construct": "purchased Reaction Biology Corporation (Kinase HotSpot)", "outline": "as §1"}, "CDK2/cyclin E": {"molecular_target": "T21, CDK2/cyclin E (Homo sapiens, UniProt P24941)", "T21 construct": "purchased Reaction Biology Corporation (Kinase HotSpot)", "outline": "as §1"}, "CDK9/cyclin K": {"molecular_target": "T22, CDK9/cyclin K (Homo sapiens, UniProt P50750)", "T22 construct": "purchased Reaction Biology Corporation (Kinase HotSpot)", "T22 sequence (P50750 whole entry)": "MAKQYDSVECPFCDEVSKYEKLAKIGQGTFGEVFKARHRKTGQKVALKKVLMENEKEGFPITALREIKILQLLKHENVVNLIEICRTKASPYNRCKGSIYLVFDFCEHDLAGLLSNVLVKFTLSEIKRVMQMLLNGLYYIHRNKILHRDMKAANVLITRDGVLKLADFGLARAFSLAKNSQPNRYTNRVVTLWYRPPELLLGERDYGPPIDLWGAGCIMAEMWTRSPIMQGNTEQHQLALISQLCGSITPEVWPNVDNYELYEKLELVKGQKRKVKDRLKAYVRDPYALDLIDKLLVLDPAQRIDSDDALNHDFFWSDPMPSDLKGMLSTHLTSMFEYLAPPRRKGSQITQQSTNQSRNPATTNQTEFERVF", "T22 sequence (O75909 whole entry partner)": "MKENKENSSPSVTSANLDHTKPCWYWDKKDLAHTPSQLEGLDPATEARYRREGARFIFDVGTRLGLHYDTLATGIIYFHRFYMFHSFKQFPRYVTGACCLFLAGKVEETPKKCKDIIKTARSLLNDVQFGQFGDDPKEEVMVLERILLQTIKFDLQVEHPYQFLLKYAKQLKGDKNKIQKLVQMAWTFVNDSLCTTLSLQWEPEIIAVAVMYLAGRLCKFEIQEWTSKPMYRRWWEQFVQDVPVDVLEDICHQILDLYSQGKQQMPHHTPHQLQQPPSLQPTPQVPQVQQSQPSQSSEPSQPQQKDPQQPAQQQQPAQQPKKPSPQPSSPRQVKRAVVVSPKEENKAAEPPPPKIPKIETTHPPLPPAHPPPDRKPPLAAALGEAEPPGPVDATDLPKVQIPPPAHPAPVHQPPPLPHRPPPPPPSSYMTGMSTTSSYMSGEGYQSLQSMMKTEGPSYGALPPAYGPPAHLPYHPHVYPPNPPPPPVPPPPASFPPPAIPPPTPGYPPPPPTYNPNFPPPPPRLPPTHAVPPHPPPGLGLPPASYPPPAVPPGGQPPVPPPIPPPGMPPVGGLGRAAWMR", "outline": "as §1"}, "TRKB": {"molecular_target": "T23, TRKB (Homo sapiens, UniProt Q16620)", "T23 construct": "purchased Reaction Biology Corporation (Kinase HotSpot)", "outline": "as §1"}, "c-MER": {"molecular_target": "T24, c-MER (Homo sapiens, UniProt Q12866)", "T24 construct": "purchased Reaction Biology Corporation (Kinase HotSpot)", "T24 sequence (Q12866 21-999)": "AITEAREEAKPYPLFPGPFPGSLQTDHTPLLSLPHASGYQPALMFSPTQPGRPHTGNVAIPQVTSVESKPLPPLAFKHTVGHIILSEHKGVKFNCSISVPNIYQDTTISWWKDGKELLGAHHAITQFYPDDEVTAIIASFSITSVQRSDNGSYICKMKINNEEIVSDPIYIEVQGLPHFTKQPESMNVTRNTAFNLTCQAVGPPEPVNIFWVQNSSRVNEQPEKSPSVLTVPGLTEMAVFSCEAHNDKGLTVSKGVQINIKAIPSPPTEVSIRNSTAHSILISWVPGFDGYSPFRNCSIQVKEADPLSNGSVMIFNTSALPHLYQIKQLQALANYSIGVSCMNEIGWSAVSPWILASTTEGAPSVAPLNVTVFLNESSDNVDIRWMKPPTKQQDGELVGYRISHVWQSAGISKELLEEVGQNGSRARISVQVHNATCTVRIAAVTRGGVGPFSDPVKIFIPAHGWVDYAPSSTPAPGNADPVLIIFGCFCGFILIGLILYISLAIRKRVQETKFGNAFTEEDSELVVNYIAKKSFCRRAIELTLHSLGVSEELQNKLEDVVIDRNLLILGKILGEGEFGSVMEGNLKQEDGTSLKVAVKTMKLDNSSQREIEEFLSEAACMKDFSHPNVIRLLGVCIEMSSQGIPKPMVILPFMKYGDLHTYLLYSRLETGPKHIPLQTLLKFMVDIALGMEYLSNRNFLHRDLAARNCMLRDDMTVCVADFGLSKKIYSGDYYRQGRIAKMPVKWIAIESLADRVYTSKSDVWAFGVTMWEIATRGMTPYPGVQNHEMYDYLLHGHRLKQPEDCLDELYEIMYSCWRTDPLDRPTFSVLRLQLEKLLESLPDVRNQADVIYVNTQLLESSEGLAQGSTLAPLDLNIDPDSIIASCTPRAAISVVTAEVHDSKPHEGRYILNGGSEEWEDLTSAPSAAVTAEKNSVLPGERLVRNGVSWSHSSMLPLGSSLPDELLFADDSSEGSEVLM", "outline": "as §1"}, "CAMK1b": {"molecular_target": "T25, CAMK1b (Homo sapiens, UniProt Q6P2M8)", "T25 construct": "purchased Reaction Biology Corporation (Kinase HotSpot)", "outline": "as §1"}, "MLK1/MAP3K9": {"molecular_target": "T26, MLK1/MAP3K9 (Homo sapiens, UniProt P80192)", "T26 construct": "purchased Reaction Biology Corporation (Kinase HotSpot)", "outline": "as §1"}, "HCK": {"molecular_target": "T27, HCK (Homo sapiens, UniProt P08631)", "T27 construct": "purchased Reaction Biology Corporation (Kinase HotSpot)", "outline": "as §1"}, "MARK1": {"molecular_target": "T28, MARK1 (Homo sapiens, UniProt Q9P0L2)", "T28 construct": "purchased Reaction Biology Corporation (Kinase HotSpot)", "T28 sequence (Q9P0L2 whole entry)": "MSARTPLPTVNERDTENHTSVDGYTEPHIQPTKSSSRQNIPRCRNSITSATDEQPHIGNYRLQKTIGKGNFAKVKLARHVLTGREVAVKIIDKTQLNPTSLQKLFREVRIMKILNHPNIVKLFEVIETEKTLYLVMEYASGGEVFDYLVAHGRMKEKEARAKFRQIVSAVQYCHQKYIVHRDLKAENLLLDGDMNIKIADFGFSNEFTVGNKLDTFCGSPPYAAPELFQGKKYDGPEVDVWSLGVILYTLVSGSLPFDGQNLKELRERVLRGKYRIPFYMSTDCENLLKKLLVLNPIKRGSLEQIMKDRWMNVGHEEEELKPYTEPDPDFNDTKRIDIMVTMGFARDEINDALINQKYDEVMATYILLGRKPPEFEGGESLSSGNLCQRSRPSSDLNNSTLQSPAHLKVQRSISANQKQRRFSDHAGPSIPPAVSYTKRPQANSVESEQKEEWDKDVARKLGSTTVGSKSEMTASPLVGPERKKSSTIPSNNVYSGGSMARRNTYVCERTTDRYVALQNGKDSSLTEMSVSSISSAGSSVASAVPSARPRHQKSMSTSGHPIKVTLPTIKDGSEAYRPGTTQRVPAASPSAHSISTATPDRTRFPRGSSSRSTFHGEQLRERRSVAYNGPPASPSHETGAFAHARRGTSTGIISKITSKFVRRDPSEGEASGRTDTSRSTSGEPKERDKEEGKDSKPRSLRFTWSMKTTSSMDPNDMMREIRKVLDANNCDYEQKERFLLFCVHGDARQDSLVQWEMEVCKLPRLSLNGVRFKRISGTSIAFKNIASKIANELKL", "outline": "as §1"}, "DDR2": {"molecular_target": "T29, DDR2 (Homo sapiens, UniProt Q16832)", "T29 construct": "purchased Reaction Biology Corporation (Kinase HotSpot)", "outline": "as §1"}, "TEC": {"molecular_target": "T30, TEC (Homo sapiens, UniProt P42680)", "T30 construct": "purchased Reaction Biology Corporation (Kinase HotSpot)", "outline": "as §1"}}}
{"compound": "Cc1cnc(N[C@H]2CC[C@H](N)CC2)nc1-c1cnc2ccc(-c3ccccc3)cn12", "note": "[CDDD11-8]", "values": [{"measurement": "remaining activity at 1 µM", "setting": "CK1a1L", "result": 90, "unit": "%"}, {"measurement": "remaining activity at 1 µM", "setting": "EPHA6", "result": 88.4, "unit": "%"}, {"measurement": "remaining activity at 1 µM", "setting": "LYN", "result": 65.5, "unit": "%"}, {"measurement": "remaining activity at 1 µM", "setting": "ABL2/ARG", "result": 67.5, "unit": "%"}, {"measurement": "remaining activity at 1 µM", "setting": "OSR1/OXSR1", "result": 101, "unit": "%"}, {"measurement": "remaining activity at 1 µM", "setting": "DRAK1/STK17A", "result": 92.5, "unit": "%"}, {"measurement": "remaining activity at 1 µM", "setting": "ULK2", "result": 113, "unit": "%"}, {"measurement": "remaining activity at 1 µM", "setting": "EPHA1", "result": 93.1, "unit": "%"}, {"measurement": "remaining activity at 1 µM", "setting": "RIPK3", "result": 97.5, "unit": "%"}, {"measurement": "remaining activity at 1 µM", "setting": "Haspin", "result": 65.1, "unit": "%"}, {"measurement": "remaining activity at 1 µM", "setting": "PAK1", "result": 106, "unit": "%"}, {"measurement": "remaining activity at 1 µM", "setting": "KDR/VEGFR2", "result": 86.9, "unit": "%"}, {"measurement": "remaining activity at 1 µM", "setting": "CAMK1g", "result": 97.7, "unit": "%"}, {"measurement": "remaining activity at 1 µM", "setting": "CSK", "result": 91.2, "unit": "%"}, {"measurement": "remaining activity at 1 µM", "setting": "MKK6", "result": 95.7, "unit": "%"}, {"measurement": "remaining activity at 1 µM", "setting": "PLK2", "result": 97.5, "unit": "%"}, {"measurement": "remaining activity at 1 µM", "setting": "CAMK2d", "result": 17.3, "unit": "%"}, {"measurement": "remaining activity at 1 µM", "setting": "CDK18/cyclin Y (PCTK3)", "result": 100, "unit": "%"}, {"measurement": "remaining activity at 1 µM", "setting": "SGK3/SGKL", "result": 115, "unit": "%"}, {"measurement": "remaining activity at 1 µM", "setting": "DLK/MAP3K12", "result": 45.8, "unit": "%"}, {"measurement": "remaining activity at 1 µM", "setting": "CDK2/cyclin E", "result": 55.6, "unit": "%"}, {"measurement": "remaining activity at 1 µM", "setting": "CDK9/cyclin K", "result": 6.4, "unit": "%"}, {"measurement": "remaining activity at 1 µM", "setting": "TRKB", "result": 10.8, "unit": "%"}, {"measurement": "remaining activity at 1 µM", "setting": "c-MER", "result": 52.3, "unit": "%"}, {"measurement": "remaining activity at 1 µM", "setting": "CAMK1b", "result": 96.1, "unit": "%"}, {"measurement": "remaining activity at 1 µM", "setting": "MLK1/MAP3K9", "result": 43, "unit": "%"}, {"measurement": "remaining activity at 1 µM", "setting": "HCK", "result": 62.7, "unit": "%"}, {"measurement": "remaining activity at 1 µM", "setting": "MARK1", "result": 46.6, "unit": "%"}, {"measurement": "remaining activity at 1 µM", "setting": "DDR2", "result": 73.5, "unit": "%"}, {"measurement": "remaining activity at 1 µM", "setting": "TEC", "result": 101, "unit": "%"}]}
